From PubChem BioAssay (NCI)
Values joined by “and” are separate entries in the source; they are usually repeats but may differ in a detail not shown here. Equal entries are not always repeated.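 Values below derive from 48-hour exposures of cells grown in 96-well plates, with endpoints linearly interpolated between the two concentrations bracketing the appropriate inhibition level. The concentration for 50% growth inhibition is given as GI50. At the TGI there is no net growth.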

Experiments:
Experiment in all cases: DTP human tumour cell line panel, 48 h
[1] = tested on: MDA-N
[2] = tested on: HL-60(TB) leukemia
[3] = tested on: UACC-257 melanoma
[4] = tested on: SK-MEL-28 melanoma
[5] = tested on: HOP-92 NSCLC
[6] = tested on: MALME-3M melanoma
[7] = tested on: RPMI-8226 leukemia
[8] = tested on: KM12 colon
[9] = tested on: SR leukemia
[10] = tested on: DMS 273 small cell lung

SMILES	TGI [1]	TGI [2]	TGI [3]	TGI [4]	TGI [5]	TGI [6]	TGI [7]	TGI [8]	TGI [9]	TGI [10]	GI50 [10]	GI50 [4]	GI50 [5]
C[N+](C)(C)c1ccc(C(N)C(=O)O)cc1 (configuration not stated)	> 100 µM	> 100 µM	> 100 µM	> 100 µM	> 100 µM	> 100 µM	> 100 µM	> 100 µM	> 100 µM	–	–	–	–
COc1ccc2c3c1OC1C(=O)C=CC4(CC2)N(C)CCC314 (configuration not stated)	> 100 µM	–	> 100 µM	66.1 µM	> 100 µM	> 100 µM	45.6 µM	43.4 µM	33.7 µM	–	–	–	–
CC(C)CNc1nc2ncnc(N)c2[nH]1	> 100 µM	> 100 µM	> 100 µM	> 100 µM	> 100 µM	> 100 µM	> 100 µM	> 100 µM	–	–	–	–	–
CN(C)C(=O)OC1C(=O)N(C)c2ccc(Cl)cc2C2(c3ccccc3)N1C2(Cl)Cl (configuration not stated)	–	> 100 µM	> 100 µM	> 100 µM	> 100 µM	> 100 µM	> 100 µM	> 100 µM	> 100 µM	> 100 µM	–	–	–
C=C/C(C)=C\CC1[C@](C)(O)CC[C@H]2C(C)(C)C(=O)CC[C@]12C (some centres not stated)	> 100 µM	60 µM	> 100 µM	> 100 µM	> 100 µM	> 100 µM	> 100 µM	> 100 µM	66.5 µM	–	–	–	–
NCCCN(CCCN(C(=O)Nc1ccccc1)c1ccccc1)C(=O)Nc1ccccc1	> 100 µM	66.1 µM	43.1 µM	34.1 µM	92 µM	38.9 µM	73 µM	–	> 100 µM	–	–	–	–
C[C@H](NC(=O)C(Cc1ccccc1)(Cc1ccc(O)cn1)NC(=O)c1ccccc1)c1ccccc1 (some centres not stated)	30.7 µM	64.6 µM	34.5 µM	38.3 µM	38.8 µM	37.6 µM	> 100 µM	49.4 µM	–	–	–	–	–
CC(NC(=O)C(NC(=O)CNC(=O)OC(C)(C)C)C(C)C)C(=O)Oc1c(Cl)c(Cl)c(Cl)c(Cl)c1Cl (configuration not stated)	> 100 µM	> 100 µM	44.7 µM	71.8 µM	41.3 µM	49.4 µM	> 100 µM	30.4 µM	> 100 µM	–	–	–	–
C[n+]1cccc2c(=O)c3ccccc3oc21	> 100 µM	> 100 µM	–	> 100 µM	> 100 µM	> 100 µM	–	> 100 µM	> 100 µM	–	–	–	–
[Cl][Sn]([c]1ccccc1)([c]1ccccc1)[c]1ccccc1	–	0.899 µM and 0.0997 µM	–	0.414 µM and 0.146 µM and 0.0808 µM	–	–	–	–	0.86 µM and 0.552 µM and 0.112 µM	0.0761 µM	0.0283 µM	0.196 µM and 0.0263 µM and 0.0229 µM	0.0939 µM and 0.122 µM and 0.0139 µM
CC(C)=NN/C(=N\S(=O)(=O)c1ccc(Oc2cccc(Cl)c2C#N)cc1)Nc1ccc(Cl)cc1	> 100 µM	> 100 µM	> 100 µM	> 100 µM	> 100 µM	> 100 µM	> 100 µM	> 100 µM	–	–	–	–	–
Cc1ccc([S@](=O)c2occc2C=O)cc1	15.1 µM	4.25 µM	26.3 µM	9.02 µM	7.78 µM	8.45 µM	8.04 µM	31.5 µM	5.08 µM	–	–	–	–
O=C(NCCCCCCCCCCCCNC(=O)Nc1cccc2ccccc12)Nc1cccc2ccccc12	31.2 µM	37.3 µM	–	36.3 µM	25.9 µM	34.4 µM	37.1 µM	33.6 µM	31.7 µM	–	–	–	–
Cc1csc(NC23CC4CC(CC(C4)C2)C3)[n+]1C(P(=O)([O-])O)P(=O)(O)O (configuration not stated)	> 100 µM	–	> 100 µM	> 100 µM	> 100 µM	> 100 µM	> 100 µM	> 100 µM	> 100 µM	–	–	–	–
CC1CCCC2(CC[N+](C)(CCC[N+](C)(C)C)CC2)C1 (configuration not stated)	> 100 µM	43.9 µM	> 100 µM	> 100 µM	> 100 µM	> 100 µM	> 100 µM	> 100 µM	> 100 µM	–	–	–	–
COC(OC)[C@@H]1OC[C@H](n2cnc3c(N)ncnc32)[C@H]1O	> 100 µM	–	> 100 µM	> 100 µM	> 100 µM	–	> 100 µM	> 100 µM	> 100 µM	–	–	–	–
COc1cc2ccc(=O)oc2cc1O	–	271 µM	270 µM	> 625 µM	> 522 µM	489 µM	438 µM	> 625 µM	–	99.6 µM	–	–	–
NC(=O)c1cccc([N+](=O)[O-])c1	–	> 100 µM	> 100 µM	> 100 µM	–	> 100 µM	> 100 µM	> 100 µM	–	> 100 µM	–	–	–
CCCCCCCC/C=C\CCCCCCC/C=C1\C[C@](/C=C/C(=O)OC)(CO)OC1=O	2.27 µM	6.14 µM	26.6 µM	3.38 µM	21.1 µM	2.86 µM	–	14.2 µM	> 23.5 µM	–	–	–	–
O=S(=O)(c1ccc(NC2=NC(c3ccc(O)cc3)(c3ccccc3O)c3ccccc32)cc1)c1ccc(NC2=NC(c3ccc(O)cc3)(c3ccccc3O)c3ccccc32)cc1 (configuration not stated)	> 23.1 µM	5.09 µM	> 47.9 µM	> 28 µM	> 70.6 µM	13.1 µM	> 100 µM	> 21.4 µM	> 49.6 µM	–	–	–	–
CCCC(=O)NC(Nc1ccc(S(=O)(=O)Nc2cc(C)on2)cc1)(C(=O)OCC)C(F)(F)F (configuration not stated)	> 100 µM	> 100 µM	> 100 µM	> 100 µM	> 100 µM	> 100 µM	> 100 µM	> 100 µM	> 100 µM	–	–	–	–
CC(=O)OCC1OC(SC2=N/C(=C\c3ccc(Br)s3)C(=O)N2CN2CCOCC2)C(OC(C)=O)C(OC(C)=O)C1OC(C)=O (configuration not stated)	47.7 µM	12.8 µM	32.2 µM	32.9 µM	–	35.6 µM	27 µM	35.3 µM	34.8 µM	–	–	–	–
COP(=O)(OC)C(Cc1cn(C(C)=O)c2ccccc12)C(=O)O (configuration not stated)	> 100 µM	> 100 µM	> 100 µM	> 100 µM	> 100 µM	–	> 100 µM	–	> 100 µM	–	–	–	–
